US9480259B2, “Pyrazolopyrans having herbicidal and pharmaceutical properties” (BASF SE, priority 2012, dated 2016)
pEC50: −log10 of the molar value.

What follows are molecules tested against Arabidopsis thaliana SHMT (assay: SHMT activity assay (ED50 SHMT), coupled with N5,N10-CH2-THF dehydrogenase, NADH at 340 nm). Conditions: Table 2, Arabidopsis thaliana SHMT enzyme assay; values given as upper bounds.
Assay type: biochemical
Method in brief: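 His-tagged SHMT purified on Ni-NTA. NADH formation followed at 340 nm for 30 min; ED50 from inhibition of initial velocity.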

pEC50 | SMILES
> 7.00 | N#CC1=C(N)Oc2[nH]ncc2C1(c1cc(Cl)cc(-c2cscn2)c1)C1CCC1 (stereo not shown) [Compound 2.339]
> 8.00 | Cc1n[nH]c2c1C(c1cc(Cl)cc(Oc3ccc(Cl)cc3)c1)(C1CCC1)C(C#N)=C(N)O2 (stereo not shown) [Compound 2.341]
> 8.00 | COc1ccc(Oc2cc(Cl)cc(C3(C4CCC4)C(C#N)=C(N)Oc4[nH]ncc43)c2)cc1 (stereo not shown) [Compound 2.343]
> 8.00 | COc1ccc(Oc2cc(Cl)cc(C3(C4CCC4)C(C#N)=C(N)Oc4[nH]nc(C)c43)c2)cc1 (stereo not shown) [Compound 2.344]
> 8.00 | Cc1n[nH]c2c1C(c1cc(Cl)cc(C#N)c1)(C(C)C)C(C#N)=C(N)O2 (stereo not shown) [Compound 2.345]
> 8.00 | N#CC1=C(N)Oc2[nH]ncc2C1(c1cc(C#N)cc(-c2ccccn2)c1)C1CCC1 (stereo not shown) [Compound 2.348]
> 8.00 | Cc1n[nH]c2c1C(c1cc(C#N)cc(-c3cccnc3)c1)(C1CCC1)C(C#N)=C(N)O2 (stereo not shown) [Compound 2.350]
> 8.00 | N#CC1=C(N)Oc2[nH]ncc2C1(c1cc(C#N)cc(-c2nccs2)c1)C1CCC1 (stereo not shown) [Compound 2.351]
> 7.00 | N#CC1=C(N)Oc2[nH]ncc2C1(c1cc(C#N)cc(-c2cscn2)c1)C1CCC1 (stereo not shown) [Compound 2.352]
> 5.00 | Cc1n[nH]c2c1C(c1cc(-c3nnn[nH]3)cc(-c3nnn[nH]3)c1)(C1CCC1)C(C#N)=C(N)O2 (stereo not shown) [Compound 2.354]
> 8.00 | Cc1n[nH]c2c1C(c1cc(-c3nnn[nH]3)cc(C(F)(F)F)c1)(C1CCC1)C(C#N)=C(N)O2 (stereo not shown) [Compound 2.355]
> 8.00 | Cc1n[nH]c2c1C(c1cccc(OC(F)(F)C(F)F)c1)(C1CCC1)C(C#N)=C(N)O2 (stereo not shown) [Compound 2.356]
> 7.00 | Cc1n[nH]c2c1C(c1cc(C#N)cc(-c3nnn[nH]3)c1)(C1CCC1)C(C#N)=C(N)O2 (stereo not shown) [Compound 2.357]
> 8.00 | Cc1n[nH]c2c1C(c1cc(Br)cc(I)c1)(C1CCC1)C(C#N)=C(N)O2 (stereo not shown) [Compound 2.358]
> 8.00 | Cc1n[nH]c2c1C(c1cc(Cl)cc(C#N)c1)(C1CC1)C(C#N)=C(N)O2 (stereo not shown) [Compound 2.359]
> 7.00 | N#CC1=C(N)Oc2[nH]ncc2C1(c1cc(Cl)cc(C#N)c1)C1CC1 (stereo not shown) [Compound 2.360]
> 7.00 | N#CC1=C(N)Oc2[nH]ncc2C1(c1cc(C#N)cc(C(F)(F)F)c1)C1CC1 (stereo not shown) [Compound 2.361]
> 8.00 | Cc1n[nH]c2c1C(c1cc(C#N)cc(-c3ccsc3Cl)c1)(C1CCC1)C(C#N)=C(N)O2 (stereo not shown) [Compound 2.363]
> 8.00 | Cc1n[nH]c2c1C(c1cc(C#N)cc(-c3cc(Cl)sc3Cl)c1)(C1CCC1)C(C#N)=C(N)O2 (stereo not shown) [Compound 2.364]
> 8.00 | Cc1n[nH]c2c1C(c1cc(Br)cc(C#N)c1)(C1CC1)C(C#N)=C(N)O2 (stereo not shown) [Compound 2.365]
> 8.00 | Cc1n[nH]c2c1C(c1cc(C#N)cc(C#N)c1)(C1CC1)C(C#N)=C(N)O2 (stereo not shown) [Compound 2.366]
> 8.00 | Cc1n[nH]c2c1C(c1cc(C#N)cc(C(F)(F)F)c1)(C1CC=CC1)C(C#N)=C(N)O2 (stereo not shown) [Compound 2.367]
> 8.00 | Cc1n[nH]c2c1C(c1cc(Cl)cc(C#N)c1)(C1CC=CC1)C(C#N)=C(N)O2 (stereo not shown) [Compound 2.368]

pEC50 | SMILES
> 8.00 | N#CC1=C(N)Oc2[nH]ncc2C1(c1cc(C#N)cc(C(=O)OCc2ccccc2)c1)C1CCC1 (stereo not shown) [Compound 2.369]
> 8.00 | Cc1n[nH]c2c1C(c1cc(C#N)cc(C(=O)OCc3ccccc3)c1)(C1CCC1)C(C#N)=C(N)O2 (stereo not shown) [Compound 2.370]
> 6.00 | Cc1n[nH]c2c1C(c1cc(C#N)cc(C(=O)O)c1)(C1CCC1)C(C#N)=C(N)O2 (stereo not shown) [Compound 2.371]
> 5.00 | N#CC1=C(N)Oc2[nH]ncc2C1(c1cc(C#N)cc(C(=O)O)c1)C1CCC1 (stereo not shown) [Compound 2.372]
> 8.00 | N#CC1=C(N)Oc2[nH]ncc2C1(c1cc(Br)cc(C#N)c1)C1CC=CC1 (stereo not shown) [Compound 2.376]
> 8.00 | Cc1n[nH]c2c1C(c1cc(Br)cc(C#N)c1)(C1CC=CC1)C(C#N)=C(N)O2 (stereo not shown) [Compound 2.377]
> 8.00 | COc1n[nH]c2c1C(c1cc(Cl)cc(Cl)c1)(C(C)C)C(C#N)=C(N)O2 (stereo not shown) [Compound 2.378]
> 8.00 | N#CC1=C(N)Oc2[nH]ncc2C1(c1cc(Br)cc(C#N)c1)C1(F)CC1 (stereo not shown) [Compound 2.380]
> 8.00 | Cc1n[nH]c2c1C(c1cc(Cl)cc(C(=O)OCc3ccccc3)c1)(C1CCC1)C(C#N)=C(N)O2 (stereo not shown) [Compound 2.381]
> 7.00 | Cc1n[nH]c2c1C(c1cc(Cl)cc(C(=O)O)c1)(C1CCC1)C(C#N)=C(N)O2 (stereo not shown) [Compound 2.382]
> 8.00 | Cc1n[nH]c2c1C(c1cc(C#N)cc(C#N)c1)(C1(F)CC1)C(C#N)=C(N)O2 (stereo not shown) [Compound 2.383]
> 8.00 | CCOc1n[nH]c2c1C(c1cc(Cl)cc(Cl)c1)(C(C)C)C(C#N)=C(N)O2 (stereo not shown) [Compound 2.384]
> 8.00 | COc1n[nH]c2c1C(c1cc(Cl)cc(Cl)c1)(C1CCC1)C(C#N)=C(N)O2 (stereo not shown) [Compound 2.386]
> 7.00 | CCOc1n[nH]c2c1C(c1cc(Cl)cc(Cl)c1)(C1CCC1)C(C#N)=C(N)O2 (stereo not shown) [Compound 2.387]
> 8.00 | COc1n[nH]c2c1C(c1cc(Br)cc(C#N)c1)(C1CCC1)C(C#N)=C(N)O2 (stereo not shown) [Compound 2.388]
> 8.00 | CCOc1n[nH]c2c1C(c1cc(Br)cc(C#N)c1)(C1CCC1)C(C#N)=C(N)O2 (stereo not shown) [Compound 2.389]
> 8.00 | COc1n[nH]c2c1C(c1cc(C#N)cc(C(F)(F)F)c1)(C1CCC1)C(C#N)=C(N)O2 (stereo not shown) [Compound 2.390]
> 7.00 | CCOc1n[nH]c2c1C(c1cc(C#N)cc(C(F)(F)F)c1)(C1CCC1)C(C#N)=C(N)O2 (stereo not shown) [Compound 2.391]
> 7.00 | COc1n[nH]c2c1C(c1cc(C#N)cc(C(F)(F)F)c1)(C1CC1)C(C#N)=C(N)O2 (stereo not shown) [Compound 2.392]
> 6.00 | CCOc1n[nH]c2c1C(c1cc(C#N)cc(C(F)(F)F)c1)(C1CC1)C(C#N)=C(N)O2 (stereo not shown) [Compound 2.393]
> 7.00 | COc1n[nH]c2c1C(c1cc(Br)cc(C#N)c1)(C1(F)CC1)C(C#N)=C(N)O2 (stereo not shown) [Compound 2.394]
> 6.00 | CCOc1n[nH]c2c1C(c1cc(Br)cc(C#N)c1)(C1(F)CC1)C(C#N)=C(N)O2 (stereo not shown) [Compound 2.395]
> 7.00 | CCOc1n[nH]c2c1C(c1cc(C#N)cc(C#N)c1)(C1CCC1)C(C#N)=C(N)O2 (stereo not shown) [Compound 2.397]

Same assay, conditions: Table 2; values given as upper bounds

pEC50 | SMILES
> 8.00 | Cc1n[nH]c2c1C(c1cc(Cl)cc(OCC#N)c1)(C1CCC1)C(C#N)=C(N)O2 (stereo not shown) [Compound 2.443]
> 7.00 | COc1n[nH]c2c1C(c1cc(Cl)cc(OCC#N)c1)(C1CCC1)C(C#N)=C(N)O2 (stereo not shown) [Compound 2.444]
> 8.00 | COCOc1cc(Cl)cc(C2(C3CCC3)C(C#N)=C(N)Oc3[nH]nc(C)c32)c1 (stereo not shown) [Compound 2.445]
> 8.00 | Cc1n[nH]c2c1C(c1cc(Cl)cc(OCc3nnn[nH]3)c1)(C1CCC1)C(C#N)=C(N)O2 (stereo not shown) [Compound 2.446]
> 8.00 | COc1c(F)cc(C2(C3CCC3)C(C#N)=C(N)Oc3[nH]nc(C)c32)cc1F (stereo not shown) [Compound 2.447]
> 6.00 | COc1c(F)cc(C2(C3(F)CC3)C(C#N)=C(N)Oc3[nH]nc(C)c32)cc1F (stereo not shown) [Compound 2.448]
> 7.00 | Cc1n[nH]c2c1C(c1cc(F)c(O)c(F)c1)(C1CCC1)C(C#N)=C(N)O2 (stereo not shown) [Compound 2.449]
> 8.00 | CC(=O)N(C)c1cc(C#N)cc(C2(C3(F)CC3)C(C#N)=C(N)Oc3[nH]nc(C)c32)c1 (stereo not shown) [Compound 2.451]
> 6.00 | Cc1n[nH]c2c1C(c1cc(C#N)cc(N3CCCC3=O)c1)(C1(F)CC1)C(C#N)=C(N)O2 (stereo not shown) [Compound 2.452]
> 8.00 | COC(=O)c1cccc(-c2cc(C#N)cc(C3(C4CCC4)C(C#N)=C(N)Oc4[nH]nc(C)c43)c2)c1 (stereo not shown) [Compound 2.453]
> 6.00 | COC(=O)c1ccc(-c2cc(C#N)cc(C3(C4CCC4)C(C#N)=C(N)Oc4[nH]nc(OC)c43)c2)cc1 (stereo not shown) [Compound 2.454]
> 7.00 | COC(=O)c1ccc(-c2cc(C#N)cc(C3(C4CCC4)C(C#N)=C(N)Oc4[nH]nc(C)c43)c2)cc1 (stereo not shown) [Compound 2.455]
> 8.00 | COC(=O)c1cccc(-c2cc(Cl)cc(C3(C4CCC4)C(C#N)=C(N)Oc4[nH]nc(C)c43)c2)c1 (stereo not shown) [Compound 2.456]
> 8.00 | COC(=O)c1cccc(-c2cc(Cl)cc(C3(C4CCC4)C(C#N)=C(N)Oc4[nH]nc(OC)c43)c2)c1 (stereo not shown) [Compound 2.457]
> 7.00 | COC(=O)c1ccc(-c2cc(Cl)cc(C3(C4CCC4)C(C#N)=C(N)Oc4[nH]nc(C)c43)c2)cc1 (stereo not shown) [Compound 2.458]
> 8.00 | Cc1n[nH]c2c1C(c1cc(C#N)cc(-c3ccc(O)c(C(F)(F)F)c3)c1)(C1CCC1)C(C#N)=C(N)O2 (stereo not shown) [Compound 2.459]
> 8.00 | Cc1n[nH]c2c1C(c1cc(C#N)cc(-c3ccc(C(=O)O)cc3)c1)(C1CCC1)C(C#N)=C(N)O2 (stereo not shown) [Compound 2.460]
> 8.00 | Cc1n[nH]c2c1C(c1cc(C#N)cc(-c3cccc(C(=O)O)c3)c1)(C1CCC1)C(C#N)=C(N)O2 (stereo not shown) [Compound 2.461]
> 8.00 | COc1c(F)cc(-c2cc(C#N)cc(C3(C4CCC4)C(C#N)=C(N)Oc4[nH]nc(C)c43)c2)cc1F (stereo not shown) [Compound 2.463]
> 8.00 | COc1ccc(C2(C3CCC3)C(C#N)=C(N)Oc3[nH]nc(C)c32)cc1C#N (stereo not shown) [Compound 2.464]
> 7.00 | N#CC1=C(N)Oc2[nH]nc(CO)c2C1(c1cc(C(F)(F)F)cc(C(F)(F)F)c1)C1(F)CC1 (stereo not shown) [Compound 2.465]
> 7.00 | CCC1(c2ccc(C)c(Br)c2)C(C#N)=C(N)Oc2[nH]nc(C)c21 (stereo not shown) [Compound 2.466]
> 8.00 | CCC1(c2cc(Cl)cc(Br)c2)C(C#N)=C(N)Oc2[nH]nc(C)c21 (stereo not shown) [Compound 2.468]
> 8.00 | CCC1(c2cc(C)cc(Br)c2)C(C#N)=C(N)Oc2[nH]nc(C)c21 (stereo not shown) [Compound 2.469]
> 8.00 | Cc1n[nH]c2c1C(c1cc(C#N)cc(OCC#N)c1)(C1CCC1)C(C#N)=C(N)O2 (stereo not shown) [Compound 2.471]
> 7.00 | CCC1(c2ccc(Br)c(Cl)c2)C(C#N)=C(N)Oc2[nH]nc(C)c21 (stereo not shown) [Compound 2.472]
> 8.00 | CCC1(c2cc(Br)c(C)c(Br)c2)C(C#N)=C(N)Oc2[nH]nc(C)c21 (stereo not shown) [Compound 2.473]
